Experimental data taken from patent US20090012067A1, “Modulation of Hypothalamic Atp-Sensitive Potassium Channels” (priority 2005, published 2009).
One block for each molecule: values may come before it.

Tests used:
central KATP channels = test: ICV infusion of diazoxide with pancreatic-insulin clamp (1 mU/kg·min) in conscious rats; format: in vivo, Sprague-Dawley rats
From the text: (§1) Animal preparation for the in vivo experiments. Rats. Eighty-nine 10-week-old male Sprague-Dawley rats (Charles River Breeding Laboratories, Wilmington, Mass.) were studied. Rats were housed in individual cages and subjected to a standard light-dark cycle. Three weeks prior to the in vivo studies, chronic catheters were implanted in the third cerebral ventricle (Obici et al., 2003; Liu et al., 1998) or intrahypothalamically (Morton et al., 2003) (IH) by stereotaxic surgery. One week before the pancreatic-insulin clamp protocols, rats received additional catheters in the right internal jugular and left carotid artery (FIG. 5) (Obici et al., 2003; Liu et al., 1998). In vivo studies. For the studies in rats, the metabolic experiments were performed ˜3 weeks after stereotaxic surgery following complete recovery from the operation (FIG. 5). All solutions were diluted with artificial cerebral spinal fluid (aCSF). […] Pancreatic-insulin clamp studies were performed as previously described (Liu et al., 1998). Euglycemic-hyperinsulinemic clamps in conscious, unrestrained, catheterized mice were performed for 90 min as previously described (Obici et al., 2003; Liu et al., 1998). Hepatic glucose fluxes. Rate of hepatic glucose fluxes was determined as described. Barzilai et al., 1997).

[1] = system: KATP channels within the medial hypothalamus; test: Intrahypothalamic (IH) infusion of diazoxide or insulin with pancreatic-insulin clamp; format: in vivo, Sprague-Dawley rats; conditions: for rate of glucose infusion required to prevent hypoglycemia: IH infusion during a pancreatic clamp, vs vehicle; for blood glucose levels / GP (glucose production): IH infusion; for blood glucose levels: bilateral, medial hypothalamus, total dose insulin 2 μU; for GP (glucose production): basal circulating insulin
From the text: as §1, with “1998).” for “1998). Hepatic glucose fluxes. Rate of hepatic glucose fluxes was determined as described. Barzilai et al., 1997).”

[2] = system: hypothalamic KATP channels; test: central infusion in rats on a high fat diet for three days (hepatic insulin resistance), glucose production; format: in vivo; conditions: plasma insulin 20 μU/ml
Method: Additional experiments were also performed in rats maintained on a high fat diet regimen for three days.

G6Pase = test: liver G6Pase mRNA by real-time PCR after the infusions; format: in vivo, Sprague-Dawley rats
From the text: (§2) Gene expression. Gluconeogenic enzymes. Quantitative analysis of gene expression was done using RT-PCR. Total RNA was isolated with Trizol (Invitrogen) and single-strand cDNA was synthesized with a kit provided by Invitrogen. Real-time PCR reactions and the primers for G6Pase and PEPCK were done as described (Pocai et al., in press). The copy number of each transcript was derived from a standard curve of cloned target templates. Expression of each transcript was normalized to copy number for 18s ribosomal protein.

PEPCK = test: liver PEPCK mRNA by real-time PCR after the infusions; format: in vivo, Sprague-Dawley rats
From the text: as §2

[3] = system: hypothalamic KATP channels; test: ICV infusion of insulin, KATP channel blocker (glibenclamide) or both with pancreatic-insulin clamp (1 mU/kg·min); format: in vivo, Sprague-Dawley rats; conditions: for Direct: ICV infusion, direct pathway; for glucose infusion needed to prevent hypoglycemia: near basal circulating insulin levels
From the text: Animal preparation for the in vivo experiments. Rats. Eighty-nine 10-week-old male Sprague-Dawley rats (Charles River Breeding Laboratories, Wilmington, Mass.) were studied. Rats were housed in individual cages and subjected to a standard light-dark cycle. Three weeks prior to the in vivo studies, chronic catheters were implanted in the third cerebral ventricle (Obici et al., 2003; Liu et al., 1998) or intrahypothalamically (Morton et al., 2003) (IH) by stereotaxic surgery. […] In vivo studies. For the studies in rats, the metabolic experiments were performed ˜3 weeks after stereotaxic surgery following complete recovery from the operation (FIG. 5). All solutions were diluted with artificial cerebral spinal fluid (aCSF). […] Euglycemic-hyperinsulinemic clamps in conscious, unrestrained, catheterized mice were performed for 90 min as previously described (Obici et al., 2003; Liu et al., 1998). Hepatic glucose fluxes. Rate of hepatic glucose fluxes was determined as described. Barzilai et al., 1997).

[4] = target: T1, hypothalamic insulin receptors (Rattus norvegicus, UniProt P15127); test: ICV insulin in rats with hepatic branch vagotomy (HV), sham operation or vagal deafferentation, pancreatic-insulin clamp (1 mU/kg·min); format: in vivo, Sprague-Dawley rats
T1 construct: Paired groups of SHAM and HV rats received an ICV infusion of either insulin or vehicle; from tissue; host or cells: CNS / hypothalamus of living Sprague-Dawley rats (ICV infusion)
From the text: Animal preparation for the in vivo experiments. Rats. Eighty-nine 10-week-old male Sprague-Dawley rats (Charles River Breeding Laboratories, Wilmington, Mass.) were studied. Rats were housed in individual cages and subjected to a standard light-dark cycle. Three weeks prior to the in vivo studies, chronic catheters were implanted in the third cerebral ventricle (Obici et al., 2003; Liu et al., 1998) or intrahypothalamically (Morton et al., 2003) (IH) by stereotaxic surgery.
(§3) In vivo studies. For the studies in rats, the metabolic experiments were performed ˜3 weeks after stereotaxic surgery following complete recovery from the operation (FIG. 5). All solutions were diluted with artificial cerebral spinal fluid (aCSF). […] Euglycemic-hyperinsulinemic clamps in conscious, unrestrained, catheterized mice were performed for 90 min as previously described (Obici et al., 2003; Liu et al., 1998).
(§4) Selective hepatic branch vagotomy. One week before the clamp procedure a subgroup of rats underwent selective hepatic vagotomy (HV) or sham operation (SHAM). Anatomical nerve transactions was verified in each rat at sacrifice by microscopic observation of the absence of vagal nerve fibers in between the two silk sutures that had been placed along the trunk at the time of transection (la Fleur et al., 2003).
Selective vagal deafferentation. Nerve transection was performed as previously described, according to the methods of Norgren and Smith (Norgren & Smith, 1998).
(§5) Hepatic glucose fluxes. Rate of hepatic glucose fluxes was determined as described. Barzilai et al., 1997).

[5] = system: hepatic glucose production; test: pancreatic-hyperinsulinemic clamp (insulin 3 mU/kg·min) in SHAM and HV rats; format: in vivo, Sprague-Dawley rats; conditions: for suppression of GP (glucose production): hyperinsulinemia ~3-fold over basal; for Direct / % Indirect: systemic insulin (3 mU); for Direct: direct pathway; for % Indirect: indirect pathway
Method: Panel A is a schematic representation of the pancreatic-hyperinsulinemic clamp procedure. At t=120 an infusion of labeled glucose was initiated and maintained for the remaining 4 hours of the study and a pancreatic hyperinsulinemic clamp was initiated at t=240 min and lasted for 2 hours. […] The figure is a longitudinal view of a rat brain, with olfactory bulb at the anterior end on the left and the caudal hindbrain on the right.
as §3, §4, §5

[6] = selective vagal deafferentation, ability of central insulin not altered
[7] = ICV insulin with or without KATP channel blocker

T1 sequence (P15127 27-759 limits assumed): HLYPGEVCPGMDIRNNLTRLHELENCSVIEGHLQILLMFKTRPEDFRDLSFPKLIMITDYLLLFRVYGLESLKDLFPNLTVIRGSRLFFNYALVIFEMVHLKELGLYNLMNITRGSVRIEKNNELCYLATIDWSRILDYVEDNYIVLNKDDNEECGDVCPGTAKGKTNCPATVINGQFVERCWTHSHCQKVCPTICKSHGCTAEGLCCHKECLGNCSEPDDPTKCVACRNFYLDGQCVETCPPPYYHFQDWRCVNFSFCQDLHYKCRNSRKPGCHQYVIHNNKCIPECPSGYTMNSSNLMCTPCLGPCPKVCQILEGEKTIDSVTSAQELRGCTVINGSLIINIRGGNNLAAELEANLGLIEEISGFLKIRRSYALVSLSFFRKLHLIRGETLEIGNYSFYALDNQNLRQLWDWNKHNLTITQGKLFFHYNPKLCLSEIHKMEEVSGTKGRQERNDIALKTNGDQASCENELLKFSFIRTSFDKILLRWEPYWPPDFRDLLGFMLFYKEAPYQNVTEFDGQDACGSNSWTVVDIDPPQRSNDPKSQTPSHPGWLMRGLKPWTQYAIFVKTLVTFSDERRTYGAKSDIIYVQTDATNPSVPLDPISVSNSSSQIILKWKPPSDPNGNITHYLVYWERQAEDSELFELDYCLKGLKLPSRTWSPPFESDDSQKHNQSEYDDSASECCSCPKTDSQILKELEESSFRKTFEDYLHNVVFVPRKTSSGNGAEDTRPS
T1 sequence (P15127 764-1383 partner limits assumed): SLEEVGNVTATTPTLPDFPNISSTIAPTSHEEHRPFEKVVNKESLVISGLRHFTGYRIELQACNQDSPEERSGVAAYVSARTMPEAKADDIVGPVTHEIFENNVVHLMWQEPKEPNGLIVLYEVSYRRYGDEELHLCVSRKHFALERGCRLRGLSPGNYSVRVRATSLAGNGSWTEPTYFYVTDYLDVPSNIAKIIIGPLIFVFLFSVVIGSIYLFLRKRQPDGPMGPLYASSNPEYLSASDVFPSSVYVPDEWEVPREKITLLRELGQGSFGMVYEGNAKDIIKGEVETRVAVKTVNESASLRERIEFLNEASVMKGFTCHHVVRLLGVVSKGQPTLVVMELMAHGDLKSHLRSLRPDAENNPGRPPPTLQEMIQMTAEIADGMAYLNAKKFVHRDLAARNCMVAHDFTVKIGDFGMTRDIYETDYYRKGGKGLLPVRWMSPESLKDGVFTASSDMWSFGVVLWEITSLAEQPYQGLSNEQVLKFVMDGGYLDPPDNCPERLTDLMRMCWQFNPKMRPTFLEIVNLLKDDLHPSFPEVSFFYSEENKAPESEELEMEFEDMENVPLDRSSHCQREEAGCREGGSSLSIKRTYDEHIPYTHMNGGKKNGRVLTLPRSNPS

Molecule: CC1=NS(=O)(=O)c2cc(Cl)ccc2N1 [diazoxide, reference compound]
glucose cycling (central KATP channels; ICV): significantly reduced
in vivo flux through G6Pase (central KATP channels; ICV): decreased the flux through G6Pase
Direct (central KATP channels; ICV infusion, direct pathway): 14.37 ± 2.2%
decrease in GP (glucose production) (central KATP channels; ICV, 1.5 nmol, basal insulin levels (~20 μU/ml)): 45±4%
glucose infusion needed to prevent hypoglycemia (central KATP channels; ICV, basal circulating insulin levels): glucose infusion was required to prevent hypoglycemia
rate of glucose infusion required to prevent hypoglycemia [1]: significant increases
blood glucose levels [1]: lowered blood glucose levels
GP (glucose production) [1]: marked suppression of GP
inhibition of glucose production ([2]; ICV or intrahypothalamic infusion): ~45%
liver G6Pase mRNA levels (G6Pase; ICV diazoxide study): markedly decreased
liver PEPCK mRNA levels (PEPCK; ICV diazoxide study): markedly decreased

Molecule: COc1ccc(Cl)cc1C(=O)NCCc1ccc(S(=O)(=O)NC(=O)NC2CCCCC2)cc1 [glibenclamide, 5-Chloro-N-[2-[4-(3-cyclohexylureidosulfonyl)phenyl]-ethyl]-2-methoxybenzamide, reference compound]
Direct [3]: 18.5 ± 2.8%
GP (glucose production) ([3]; ICV, blocker alone or co-infused with insulin): did not per se affect GP
glucose infusion needed to prevent hypoglycemia ([3]; ICV): did not modify the rate of glucose infusion

^14C-PEP ([4]; HV, ICV): 5.5 ± 1.4 dpm/nmol
glucose infusion needed to prevent hypoglycemia ([4]; HV, ICV insulin): not in the HV rats
hepatic glucose fluxes ([4]; HV, ICV insulin): failed to affect hepatic glucose fluxes
^3H-Glucose Plasma SA ([4]; SHAM, ICV): 43.1 ± 1.9 dpm/nmol
^3H-UDPglucose Liver SA ([4]; SHAM, ICV): 5.5 ± 0.5 dpm/nmol
gluconeogenesis ([4]; SHAM, ICV insulin): marked inhibition of gluconeogenesis
in vivo flux through G6Pase ([4]; SHAM, ICV insulin): markedly decreased
Direct ([4]; SHAM, ICV, direct pathway): 12.1 ± 0.7%
rate of glucose uptake ([4]; either SHAM or HV rats, ICV): not significantly affected
GP (glucose production) [4, 6]: suppress GP
blood glucose levels [4, 6]: lower blood glucose levels
Molecule: insulin
in vivo flux through G6Pase ([3]; ICV): markedly decreased
Direct [3]: 12.1 ± 0.7%
decrease in GP (glucose production) ([3]; ICV insulin 30 μU, basal and equal insulin levels (~20 μU/ml)): 52±8%
glucose infusion needed to prevent hypoglycemia ([3]; ICV): glucose infusion was required to prevent hypoglycemia
rate of glucose disposal (uptake) ([3]; ICV, pancreatic-insulin clamp): not significantly affected
glucose infusion needed to prevent hypoglycemia ([4]; SHAM, ICV insulin): glucose infusion was required to prevent hypoglycemia
Glucose ([5]; HV, Clamp, systemic insulin 3 mU/Kg·min): 8.1 ± 0.5 mM
suppression of GP (glucose production) ([5]; HV): 38±11%
Direct ([5]; HV): 22.0 ± 2.3%
% Indirect ([5]; HV): 60.7 ± 9.4 %
suppression of GP (glucose production) ([5]; SHAM): 80±8%
Direct ([5]; SHAM): 22.8 ± 3.9%
% Indirect ([5]; SHAM): 34.5 ± 6.7%
rate of glucose infusion required to prevent hypoglycemia [1]: significant increases
blood glucose levels [1]: reproduced the potent effects of ICV insulin or diazoxide
GP (glucose production) [1]: reproduced the potent effects of ICV insulin or diazoxide
glucose production ([2]; central administration): failed to significantly inhibit glucose production
liver G6Pase mRNA levels (G6Pase; [7]): marked KATP channels dependent decreases
liver G6Pase mRNA levels (G6Pase; SHAM, ICV insulin): marked decrease
liver PEPCK mRNA levels (PEPCK; HV, ICV insulin): not in HV rats
liver PEPCK mRNA levels (PEPCK; [7]): marked KATP channels dependent decreases
liver PEPCK mRNA levels (PEPCK; SHAM, ICV insulin): marked decrease
